The values below come from patent US11312723B2, “Pyranopyrazole and pyrazolopyridine immunomodulators for treatment of autoimmune diseases” (The Rockefeller University, priority 2017, dated 2022).

Bounds are passed on as bounds.

Sequence of Human FXIIa (P00748 373-615): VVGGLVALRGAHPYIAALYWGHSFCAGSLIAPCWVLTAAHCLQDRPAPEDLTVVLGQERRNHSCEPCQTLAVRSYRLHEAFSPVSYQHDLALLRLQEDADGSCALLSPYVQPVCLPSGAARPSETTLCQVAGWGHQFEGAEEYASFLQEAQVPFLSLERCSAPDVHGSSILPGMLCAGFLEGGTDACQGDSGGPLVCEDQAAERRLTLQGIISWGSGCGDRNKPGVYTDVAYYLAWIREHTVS
Sequence of Human FXIIa (P00748 20-372 partner): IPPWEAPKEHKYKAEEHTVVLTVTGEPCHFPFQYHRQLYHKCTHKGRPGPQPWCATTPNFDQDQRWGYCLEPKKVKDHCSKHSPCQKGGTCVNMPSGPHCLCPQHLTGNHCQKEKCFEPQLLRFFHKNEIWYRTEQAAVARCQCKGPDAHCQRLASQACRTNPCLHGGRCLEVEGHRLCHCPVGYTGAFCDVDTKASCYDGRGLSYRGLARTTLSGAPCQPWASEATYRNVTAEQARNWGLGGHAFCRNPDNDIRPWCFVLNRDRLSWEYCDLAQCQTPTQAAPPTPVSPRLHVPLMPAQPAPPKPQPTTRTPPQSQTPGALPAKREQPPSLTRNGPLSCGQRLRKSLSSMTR

The target of the test is Human FXIIa (Homo sapiens (Human), UniProt P00748). The test can be described thus: Factor XIIa (FXIIa) inhibitory activity, chromogenic substrate (Pefachrome XIIa) cleavage. The following applies: 10 min pre-incubation, Pefachrome XIIa 400 μM. It is filed as biochemical. The method, then: Factor XIIa (FXIIa) Inhibitory Activity:
In a 96-well clear bottom plate, 80 μl of assay buffer was added to each well. Assay buffer consists of 0.5× Hank's Balanced Salt Solution (Invitrogen), buffered with 25 mM HEPES pH 7.4 (Invitrogen) and 0.5× Tris-buffered saline with Tween-20 0.05% (Santa Cruz Biotechnology). Test compounds were first dissolved in DMSO (Sigma) and then 4 μl were added to test wells containing assay buffer. Serial dilutions using an automated multi-channel pipette were used to generate a concentration range of approximately 1-100 μM. Human FXIIa (Enzyme Research Labs) was diluted in assay buffer to a final concentration of 12.5 nM. 80 μl of this enzyme solution was added to the assay wells. The enzyme/compound mixtures were incubated for 10 minutes at room temperature. Chromogenic substrate (Pefachrome XIIa; Enzyme Research Labs) was added to assay wells at a final concentration of 400 μM. The assay plate was spun for 1 minute at 1500 g and then read at 37° C. in a SpectraMax M2 plate reader (λ=405 nm). Activity was quantified as the rate of change in absorbance, which corresponds to the rate of substrate cleavage. IC50 values were determined as the concentration of inhibitor that produced 50% of the rate of change of control wells without any inhibitor. For compounds with activity <1 μM, the assay was repeated with a lower concentration range, typically from 10-1000 nM.
What is called IC50 is the concentration needed to halve the response being measured. High values mean weaker potency in that assay, low ones greater potency in that assay. Molecule `Nc1c2c(nn1C(=O)[C@@H]1CCNc3ccc(F)cc31)COCC2` (single isomer, unassigned) [Example 197, (R*)-(3-amino-4,5-dihydropyrano[3,4-c]pyrazol-2(7H)-yl)(6-fluoro-1,2,3,4-tetrahydro-quinolin-4-yl)methanone] registered an IC50 of 40 µM. `COc1cccc2c1NCCC2C(=O)n1nc2c(c1N)CCN(S(C)(=O)=O)C2` (single isomer, unassigned) [Example 64, (R*)-(3-amino-6-(methylsulfonyl)-4,5,6,7-tetrahydropyrazolo[3,4-c]pyridin-2-yl)(8-methoxy-1,2,3,4-tetrahydroquinolin-4-yl)methanone] had an IC50 of 35 µM. `Cc1cccc2c1NCC[C@@H]2C(=O)n1nc2c(c1N)COCC2` (single isomer, unassigned) [Example 190, (S*)-(3-amino-6,7-dihydropyrano[4,3-c]pyrazol-2(4H)-yl)(8-methyl-1,2,3,4-tetrahydro-quinolin-4-yl)methanone]: the IC50 was determined as 0.05 µM. With `Cc1cc2c(C(=O)n3nc4c(c3N)CN(C(=O)OC(C)(C)C)CC4)cccc2[nH]1` [Example 1, tert-butyl 3-amino-2-[(2-methyl-1H-indol-4-yl)carbonyl]-4,5,6,7-tetrahydro-2H-pyrazolo[4,3-c]pyridin-5-carboxylate] the figure was 0.08 µM; with `CS(=O)(=O)N1CCc2c(N)nn(C(=O)C3CCNc4c(F)cccc43)c2C1` (stereo not shown) [Example 38, (3-amino-6-(methylsulfonyl)-4,5,6,7-tetrahydropyrazolo[3,4-c]pyridin-1-yl)(8-fluoro-1,2,3,4-tetrahydroquinolin-4-yl)methanone], 70 µM; with `Cc1cccc2c1NCC[C@@H]2C(=O)n1nc2c(c1N)CCN(S(=O)(=O)N(C)C)C2` (single isomer, unassigned) [Example 180, (S*)-3-amino-N,N-dimethyl-2-(8-methyl-1,2,3,4-tetrahydro-quinoline-4-carbonyl)-4,5-dihydro-2H-pyrazolo[3,4-c]pyridine-6(7H)-sulfonamide], 0.04 µM. Next, `COc1ccc2c(c1)C(C(=O)n1nc3c(c1N)CCN(S(C)(=O)=O)C3)CCN2` (stereo not shown) [Example 22, (3-amino-6-(methylsulfonyl)-4,5,6,7-tetrahydropyrazolo[3,4-c]pyridin-2-yl)(6-methoxy-1,2,3,4-tetrahydroquinolin-4-yl)methanone]: 1.4 µM.

Molecule `Cc1cccc2c1NCC[C@H]2C(=O)n1nc2c(c1N)CCN(CCO)C2` (single isomer, unassigned) [Example 205, (R*)-(3-amino-6-(2-hydroxyethyl)-4,5,6,7-tetrahydro-2H-pyrazolo[3,4-c]pyridin-2-yl)(8-methyl-1,2,3,4-tetrahydro-quinolin-4-yl)methanone] yielded an IC50 of over 25 µM. With `CS(=O)(=O)N1CCc2c(nn(C(=O)C3CC(=O)Nc4ccc(F)cc43)c2N)C1` (stereo not shown) [Example 43, 4-(3-amino-6-(methylsulfonyl)-4,5,6,7-tetrahydro-2H-pyrazolo[3,4-c]pyridine-2-carbonyl)-6-fluoro-3,4-dihydroquinolin-2(1H)-one], the IC50 was 4 µM. As to `CCN1CCc2c(nn(C(=O)[C@@H]3CCNc4ccc(F)cc43)c2N)C1` (single isomer, unassigned) [Example 166, (R*)-(3-amino-6-ethyl-4,5,6,7-tetrahydro-pyrazolo[3,4-c]pyridin-2-yl)(6-fluoro-1,2,3,4-tetrahydro-quinolin-4-yl)methanone], the IC50 turned out to be 10 µM.

`Cc1cccc2c1NCC[C@@H]2C(=O)n1nc2c(c1N)CCN(CCO)C2` (single isomer, unassigned) [Example 204, (S*)-(3-amino-6-(2-hydroxyethyl)-4,5,6,7-tetrahydro-2H-pyrazolo[3,4-c]pyridin-2-yl)(8-methyl-1,2,3,4-tetrahydro-quinolin-4-yl)methanone] returned an IC50 of 0.04 µM. Turning to `CCc1cc(C)c2c(c1)C(C(=O)n1nc3c(c1N)CCN(S(C)(=O)=O)C3)CCN2` (single isomer, unassigned) [Example 70, (3-amino-6-(methylsulfonyl)-4,5,6,7-tetrahydropyrazolo[3,4-c]pyridin-2-yl)((R*)-6-ethyl-8-methyl-1,2,3,4-tetrahydroquinolin-4-yl)methanone], 5 µM corresponded to half-maximal inhibition (IC50). For `Nc1c2c(nn1C(=O)C1CCNc3c(Cl)cccc31)CNCC2` (single isomer, unassigned) [Example 73, (R*)-(3-amino-4,5,6,7-tetrahydropyrazolo[3,4-c]pyridin-2-yl)(8-chloro-1,2,3,4-tetrahydroquinolin-4-yl)methanone], the IC50 came out at 7 µM. Next, `Nc1c2c(nn1C(=O)C1CCNc3c(Cl)cccc31)CNCC2` (single isomer, unassigned) [Example 72, (S*)-(3-amino-4,5,6,7-tetrahydropyrazolo[3,4-c]pyridin-2-yl)(8-chloro-1,2,3,4-tetrahydroquinolin-4-yl)methanone]: 0.07 µM; `Cc1cccc2c1NCCC2C(=O)n1nc(N)c2c1COCC2` (stereo not shown) [Example 200, (3-amino-4,5-dihydropyrano[3,4-c]pyrazol-1(7H)-yl)(8-methyl-1,2,3,4-tetrahydro-quinolin-4-yl)methanone]: over 100 µM. As to `CS(=O)(=O)N1CCc2c(N)nn(C(=O)C3CCNc4ccc(-c5ccccc5)cc43)c2C1` (stereo not shown) [Example 50, (3-amino-6-(methylsulfonyl)-4,5,6,7-tetrahydropyrazolo[3,4-c]pyridin-1-yl)(6-phenyl-1,2,3,4-tetrahydroquinolin-4-yl)methanone], the IC50 was over 80 µM.

`CCN1CCc2c(N)nn(C(=O)C3CCNc4ccc(Cl)cc43)c2C1` (stereo not shown) [Example 162, (3-amino-6-ethyl-4,5,6,7-tetrahydro-pyrazolo[3,4-c]pyridin-1-yl)(6-chloro-1,2,3,4-tetrahydro-quinolin-4-yl)methanone] had an IC50 of 21 µM. The molecule `CS(=O)(=O)N1CCc2c(N)nn(C(=O)C3CCCc4[nH]c(Cl)cc43)c2C1` (stereo not shown) [Example 133, (3-amino-6-(methylsulfonyl)-4,5,6,7-tetrahydro-pyrazolo[3,4-c]pyridin-1-yl)(2-chloro-4,5,6,7-tetrahydro-1H-indol-4-yl)methanone] had an IC50 of 45 µM. For the molecule `Cc1cccc2c1NCC[C@H]2C(=O)n1nc2c(c1N)CCOC2` (single isomer, unassigned) [Example 199, (R*)-(3-amino-4,5-dihydropyrano[3,4-c]pyrazol-2(7H)-yl)(8-methyl-1,2,3,4-tetrahydro-quinolin-4-yl)methanone], the IC50 turned out to be 80 µM.

Molecule `Cc1cc2c(C(=O)n3nc4c(c3N)CNCC4)cccc2[nH]1` [Example 2, (3-amino-4,5,6,7-tetrahydropyrazolo[4,3-c]pyridin-2-yl)(2-methyl-1H-indol-4-yl)methanone] gave an IC50 of 0.06 µM. Take `COc1cccc2c1NCCC2C(=O)n1nc(N)c2c1CN(S(C)(=O)=O)CC2` (stereo not shown) [Example 62, (3-amino-6-(methylsulfonyl)-4,5,6,7-tetrahydropyrazolo[3,4-c]pyridin-1-yl)(8-methoxy-1,2,3,4-tetrahydroquinolin-4-yl)methanone]: the IC50 is over 65 µM. In the case of `Nc1nn(C(=O)C2CCNc3ccc(F)cc32)c2c1CCN(c1ccccc1)C2` (stereo not shown) [Example 29, (3-amino-6-phenyl-4,5,6,7-tetrahydropyrazolo[3,4-c]pyridin-1-yl)(6-fluoro-1,2,3,4-tetrahydroquinolin-4-yl)methanone], the IC50 was over 60 µM. As to `Cc1cc2c(C(=O)n3nc(N)c4c3CN(S(C)(=O)=O)CC4)cccc2[nH]1` [Example 102, (3-amino-6-(methylsulfonyl)-4,5,6,7-tetrahydro-pyrazolo[3,4-c]pyridin-1-yl)(2-methyl-1H-indol-4-yl)methanone], the midpoint of inhibition, the IC50, lay at 1.2 µM. As for `Cc1ccc2c(c1)C(C(=O)n1nc(N)c3c1CN(S(C)(=O)=O)CC3)CCN2` (stereo not shown) [Example 13, (3-amino-6-(methylsulfonyl)-4,5,6,7-tetrahydropyrazolo[3,4-c]pyridin-1-yl)(6-methyl-1,2,3,4-tetrahydroquinolin-4-yl)methanone], the IC50 is over 90 µM.

Turning to `Nc1nn(C(=O)C2CCNc3ccc(F)cc32)c2c1CCN(S(=O)(=O)c1ccncc1)C2` (stereo not shown) [Example 156, (3-amino-6-(pyridin-4-ylsulfonyl)-4,5,6,7-tetrahydro-pyrazolo[3,4-c]pyridin-1-yl)(6-fluoro-1,2,3,4-tetrahydro-quinolin-4-yl)methanone], the IC50 was found to be 14 µM. Regarding `CC(=O)Nc1ccc2c(c1)C(C(=O)n1nc(N)c3c1CN(S(C)(=O)=O)CC3)CCN2` (stereo not shown) [Example 48, N-(4-(3-amino-6-(methylsulfonyl)-4,5,6,7-tetrahydro-1H-pyrazolo[3,4-c]pyridine-1-carbonyl)-1,2,3,4-tetrahydroquinolin-6-yl)acetamide], the IC50 was over 30 µM. With `CC(=O)Nc1ccc2c(c1)C(C(=O)n1nc3c(c1N)CCN(S(C)(=O)=O)C3)CCN2` (stereo not shown) [Example 47, N-(4-(3-amino-6-(methylsulfonyl)-4,5,6,7-tetrahydro-2H-pyrazolo[3,4-c]pyridine-2-carbonyl)-1,2,3,4-tetrahydroquinolin-6-yl)acetamide], it took 8.5 µM to reach half-maximal inhibition (IC50). With `Nc1c2c(nn1C(=O)[C@@H]1CCNc3c(Cl)cccc31)COCC2` (single isomer, unassigned) [Example 201, (R*)-(3-amino-4,5-dihydropyrano[3,4-c]pyrazol-2(7H)-yl)(8-chloro-1,2,3,4-tetrahydro-quinolin-4-yl)methanone], the IC50 worked out at 16 µM.
